Measurements reported in patent US11497212B2, “Substituted thiophenyl uracils, salts thereof and the use thereof as herbicidal agents” (Syngenta Crop Protection AG, priority 2017, dated 2022).

Assays:
Format in all cases: in vivo
Abutilon theophrasti = assay: Herbicidal action post-emergence (greenhouse pot trial); settings: application rate 20 g/ha, scored visually after about 3 weeks vs untreated controls
Method: (§1) Seeds of mono- and dicotyledonous weed plants and crop plants are laid out in sandy loam soil in plastic or wood-fiber pots, covered with earth and grown under controlled growth conditions in a greenhouse. 2 to 3 weeks after sowing, the trial plants are treated at the one-leaf stage. The compounds of the invention formulated in the form of wettable powders (WP) or emulsion concentrates (EC) were then sprayed onto the green parts of the plant as an aqueous suspension or emulsion with addition of 0.5% additive at a water application rate equivalent to 600 L/ha. After the trial plants had stood for about 3 weeks in the greenhouse, under optimal growth conditions, the effect of the preparations was scored visually by comparison with untreated controls. For example, 100% efficacy=plants have died, 0% efficacy=like control plants. Tables A1 to A15 below show the efficacies of selected compounds of the general formula (I) according to tables I.1 to I.60 on various harmful plants and an application rate corresponding to 80 g/ha or lower that were obtained by the aforementioned trial method.

Amaranthus retroflexus = assay: as above; settings: application rate 20 g/ha, scored visually after about 3 weeks vs untreated controls
Method: as §1

Veronica persica = assay: as above; settings: application rate 20 g/ha
Method: as §1

Viola tricolor = assay: as above; settings: application rate 20 g/ha
Method: as §1

Oryza sativa = assay: Crop compatibility post-emergence (greenhouse pot trial)
Method: as §1, with “plants.” for “plants. Tables A1 to A15 below show the efficacies of selected compounds of the general formula (I) according to tables I.1 to I.60 on various harmful plants and an application rate corresponding to 80 g/ha or lower that were obtained by the aforementioned trial method.”
(§2) Crop plant compatibilities were also scored correspondingly.
(§3) The effects observed are reported here on selected crop plants by comparison with the untreated controls (values in %).

Triticum aestivum = assay: as above
Method: as §1, with “plants.” for “plants. Tables A1 to A15 below show the efficacies of selected compounds of the general formula (I) according to tables I.1 to I.60 on various harmful plants and an application rate corresponding to 80 g/ha or lower that were obtained by the aforementioned trial method.”
as §2, §3

Zea mays = assay: as above
Method: as §1, with “plants.” for “plants. Tables A1 to A15 below show the efficacies of selected compounds of the general formula (I) according to tables I.1 to I.60 on various harmful plants and an application rate corresponding to 80 g/ha or lower that were obtained by the aforementioned trial method.”
as §2, §3

Digitaria sanguinalis = assay: Herbicidal action post-emergence (greenhouse pot trial); settings: application rate 20 g/ha
Method: as §1

Echinochloa crus-galli = assay: as above; settings: application rate 20 g/ha, scored visually after about 3 weeks vs untreated controls
Method: as §1

Matricaria inodora = assay: as above; settings: application rate 20 g/ha, scored visually after about 3 weeks vs untreated controls
Method: as §1

Pharbitis purpurea = assay: as above; settings: application rate 20 g/ha
Method: as §1

Polygonum convolvulus = assay: as above; settings: application rate 20 g/ha, scored visually after about 3 weeks vs untreated controls
Method: as §1

Setaria viridis = assay: as above; settings: application rate 20 g/ha, scored visually after about 3 weeks vs untreated controls
Method: as §1

Stellaria media = assay: as above; settings: application rate 20 g/ha, scored visually after about 3 weeks vs untreated controls
Method: as §1

Alopecurus myosuroides = assay: as above; settings: application rate 20 g/ha, scored visually after about 3 weeks vs untreated controls
Method: as §1

Row | Structure (SMILES) | Abutilon theophrasti (Efficacy in %) (Abutilon theophrasti) | Amaranthus retroflexus (Efficacy in %) (Amaranthus retroflexus) | Veronica persica (Efficacy in %) (Veronica persica) | Viola tricolor (Efficacy in %) (Viola tricolor) | Oryza sativa (Efficacy in %) (Oryza sativa; application rate 20 g/ha) | Triticum aestivum (Efficacy in %) (Triticum aestivum; application rate 5 g/ha) | Zea mays (Efficacy in %) (Zea mays; application rate 5 g/ha) | Digitaria sanguinalis (Efficacy in %) (Digitaria sanguinalis) | Echinochloa crus-galli (Efficacy in %) (Echinochloa crus-galli) | Matricaria inodora (Efficacy in %) (Matricaria inodora) | Pharbitis purpurea (Efficacy in %) (Pharbitis purpurea) | Polygonum convolvulus (Efficacy in %) (Polygonum convolvulus) | Setaria viridis (Efficacy in %) (Setaria viridis) | Stellaria media (Efficacy in %) (Stellaria media) | Triticum aestivum (Efficacy in %) (Triticum aestivum; application rate 20 g/ha) | Oryza sativa (Efficacy in %) (Oryza sativa; application rate 5 g/ha) | Zea mays (Efficacy in %) (Zea mays; application rate 20 g/ha) | Alopecurus myosuroides (Efficacy in %) (Alopecurus myosuroides) | Zea mays (Efficacy in %) (Zea mays; application rate 80 g/ha)
1 | Cc1c(C(F)(F)F)n(C)c(=O)n(-c2cc(SCC(C)(C)C(=O)OCC3CCSC3)c(Cl)cc2F)c1=O (stereo not drawn) [I.54-82] | 100% | 100% | 80% | 90% | 0% | 0% | 20% |  |  |  |  |  |  |  |  |  |  |  | 
2 | CC(Sc1cc(-n2c(=O)cc(C(F)(F)F)n(C)c2=O)c(F)cc1Cl)C(=O)OCCCOCc1ccccc1 (stereo not drawn) [I.1-30] | 100% | 100% | 100% | 100% | 0% |  |  | 100% | 100% | 100% | 100% | 100% | 100% | 90% | 20% |  |  |  | 
3 | CC(Sc1cc(-n2c(=O)cc(C(F)(F)F)n(C)c2=O)c(F)cc1Cl)C(=O)OCCOCc1ccccc1 (stereo not drawn) [I.1-6] | 100% | 100% | 100% | 100% |  |  |  | 100% | 90% | 100% | 100% | 100% | 100% | 90% |  | 0% |  |  | 
4 | Cn1c(C(F)(F)F)cc(=O)n(-c2cc(SCC(C)(C)C(=O)OC3CCOCC3)c(Cl)cc2F)c1=O [I.48-127] | 100% | 100% | 100% | 100% | 0% |  | 20% |  |  | 90% | 90% | 90% |  | 100% | 10% |  |  |  | 
5 | Cc1c(C(F)(F)F)n(C)c(=O)n(-c2cc(SCC(C)(C)C(=O)NCC3CCCO3)c(Cl)cc2F)c1=O (stereo not drawn) [I.54-221] | 100% | 100% | 80% |  | 20% |  |  |  |  | 100% | 100% | 100% |  | 80% | 0% |  | 00% |  | 
6 | CC(Sc1cc(-n2c(=O)cc(C(F)(F)F)n(C)c2=O)c(F)cc1Cl)C(=O)NCC1COC(C)(C)O1 (stereo not drawn) [I.1-334] | 100% | 100% | 100% | 100% | 10% |  |  |  |  | 100% |  | 90% | 90% | 90% |  |  | 20% |  | 
7 | Cc1c(C(F)(F)F)n(C)c(=O)n(-c2cc(SCC(C)(C)C(=O)OCC3CCCO3)c(Cl)cc2F)c1=O (stereo not drawn) [I.54-71] | 100% | 100% | 100% | 100% |  | 20% |  | 80% | 80% |  | 100% | 100% | 100% | 80% |  | 0% |  |  | 
8 | Cn1c(C(F)(F)F)cc(=O)n(-c2cc(SCC(C)(C)C(=O)OCC3CCCOC3)c(Cl)cc2F)c1=O (stereo not drawn) [I.48-92, Tetrahydro-2H-pyran-3-ylmethyl 3-({2-chloro-4-fluoro-5-[3-methyl-2,6-dioxo-4-(trifluoromethyl)-3,6-dihydropyrimidin-1(2H)-yl]phenyl}sulfanyl)-2,2-dimethylpropanoate] | 100% | 100% | 100% | 100% | 10% |  | 10% |  |  |  |  | 80% | 100% | 100% | 0% |  |  |  | 
9 | CCC(Sc1cc(-n2c(=O)c(C)c(C(F)(F)F)n(C)c2=O)c(F)cc1Cl)C(=O)NCC1CCCO1 (stereo not drawn) [I.12-221] | 100% | 100% | 100% | 100% | 20% |  | 0% |  |  | 100% |  | 100% |  | 80% | 20% |  |  |  | 
10 | Cn1c(C(F)(F)F)cc(=O)n(-c2cc(SCC(C)(C)C(=O)OCC3CCOCC3)c(Cl)cc2F)c1=O [I.48-93] | 100% | 100% | 100% | 100% | 0% |  |  |  |  |  | 100% | 80% |  | 100% | 0% |  |  | 80% | 
11 | CCC(Sc1cc(-n2c(=O)c(C)c(C(F)(F)F)n(C)c2=O)c(F)cc1Cl)C(=O)OCC1CCCO1 (stereo not drawn) [I.12-71] | 100% | 100% | 100% | 100% | 0% | 0% | 0% |  | 100% | 80% | 100% | 80% |  | 100% |  |  |  |  | 
12 | COCCNC(=O)C(C)Sc1cc(-n2c(=O)cc(C(F)(F)F)n(C)c2=O)c(F)cc1Cl (stereo not drawn) [I.1-151] | 100% | 100% | 100% | 100% | 20% | 20% | 20% | 80% |  | 100% | 100% | 100% | 100% | 100% |  |  |  |  | 
13 | Cn1c(C(F)(F)F)cc(=O)n(-c2cc(SCC(C)(C)C(=O)NCC3CCCO3)c(Cl)cc2F)c1=O (stereo not drawn) [I.48-221] | 100% | 90% | 100% | 100% | 10% |  |  |  |  | 80% |  |  |  | 100% |  |  |  |  | 20%
